Source: patent US20240343681A1, “MOLECULES HAVING PESTICIDAL UTILITY AND INTERMEDIATES AND PROCESSES RELATED THERETO” (priority 2021, published 2024)

Key:
[1] = test system: Beet Armyworm (Spodoptera exigua, LAPHEG) second instar larva; assay: Bioassay on beet armyworm (BAW), 128-well diet tray assay; assay type: in vivo; settings: 50 μg/cm^2 on artificial diet, 25° C., five days
Procedure: Example A: Bioassays on Beet Armyworm (Spodoptera exigua, LAPHEG) (“BAW”) and Cabbage Looper (Trichoplusia ni, TRIPNI) (“CL”)
Bioassays on BAW were conducted using a 128-well diet tray assay. One second instar BAW larva was placed in each well (8 wells total) of the diet tray that had been previously filled with 1 mL of artificial diet to which 50 μg/cm^2 of the test molecule (dissolved in 50 μL of 90:10 acetone-water mixture) had been applied (to each of eight wells) and then allowed to dry. Trays were covered with a clear self-adhesive cover, vented to allow gas exchange, and held at 25° C., 14:10 light-dark for five days. Percent mortality was recorded for the larvae in each well; activity in the eight wells was then averaged.

[2] = test system: Yellow Fever Mosquito (Aedes aegypti, AEDSAE) larvae; assay: Bioassay on yellow fever mosquito (YFM), 96-well plate larval assay; assay type: in vivo; settings: 4000 ppm (master plate solution), about 1 day-old larvae, 3 days
Procedure: Example B: Bioassays on Yellow Fever Mosquito (Aedes aegypti, AEDSAE) (“YFM”)
Master plates containing 400 μg of a molecule dissolved in 100 μL of dimethyl sulfoxide (DMSO) (equivalent to a 4000 ppm solution) are used. A master plate of assembled molecules contains 15 μL per well. To this plate, 135 μL of a 90:10 water/acetone mixture is added to each well. A robot (Biomek® NXP Laboratory Automation Workstation) is programmed to dispense 15 μL aspirations from the master plate into an empty 96-well shallow plate (“daughter” plate). There are 6 reps (“daughter” plates) created per master. The created “daughter” plates are then immediately infested with YFM larvae.
The day before plates are to be treated, mosquito eggs are placed in Millipore water containing liver powder to begin hatching (4 g into 400 mL). After the “daughter” plates are created using the robot, they are infested with 220 μL of the liver powder/larval mosquito mixture (about 1 day-old larvae). After plates are infested with mosquito larvae, a non-evaporative lid is used to cover the plate to reduce drying. Plates are held at room temperature for 3 days prior to grading. After 3 days, each well is observed and scored based on mortality.

Row | SMILES | activity against BAW (percent mortality, averaged over eight wells) [1] | activity against YFM (scored based on mortality) [2]
1 | O=C(Nc1ccc(Cl)c(NC(=O)C(F)(F)C(F)(F)C(F)(F)F)c1)[C@H]1[C@H](c2cc(Cl)cc(Cl)c2)C1(Cl)Cl (racemic) [F56, trans-rac-2,2-Dichloro-N-(4-chloro-3-(2,2,3,3,4,4,4-heptafluorobutanamido)phenyl)-3-(3,5-dichlorophenyl)cyclopropane-1-carboxamide] | exhibited activity | exhibited activity
2 | O=C(Nc1cc(NC(=O)[C@H]2[C@H](c3cc(Cl)cc(Cl)c3)C2(Cl)Cl)ccc1Cl)c1ccc(F)c(F)c1 (racemic) [F67, trans-rac-N-(2-Chloro-5-(2,2-dichloro-3-(3,5-dichlorophenyl)cyclopropane-1-carboxamido)phenyl)-3,4-difluorobenzamide] | exhibited activity | exhibited activity
3 | CCCC(=O)Nc1cc(NC(=O)[C@H]2[C@H](c3cc(Cl)cc(Cl)c3)C2(Cl)Cl)ccc1Cl (racemic) [F45, trans-rac-N-(3-Butyramido-4-chlorophenyl)-2,2-dichloro-3-(3,5-dichlorophenyl)cyclopropane-1-carboxamide] |  | exhibited activity
4 | O=C(Nc1cc(NC(=O)[C@H]2[C@H](c3cc(Cl)cc(Cl)c3)C2(Cl)Cl)ccc1Cl)c1ccc(Cl)cc1 (racemic) [F79, trans-rac-4-Chloro-N-(2-chloro-5-(2,2-dichloro-3-(3,5-dichlorophenyl)cyclopropane-1-carboxamido)phenyl)benzamide] | exhibited activity | exhibited activity
5 | CCOC(C)C(=O)Nc1cccc(NC(=O)[C@H]2[C@H](c3cc(Cl)cc(Cl)c3)C2(Cl)Cl)c1F (stereo partly drawn) [F18, (1R,3R)-2,2-Dichloro-3-(3,5-dichlorophenyl)-N-(3-(2-ethoxypropanamido)-2-fluorophenyl)cyclopropane-1-carboxamide] | exhibited activity | exhibited activity
6 | CCCC(=O)Nc1c(F)ccc(NC(=O)[C@H]2[C@H](c3cc(Cl)c(Cl)c(Cl)c3)C2(Cl)Cl)c1F [F14, (1R,3R)—N-(3-Butyramido-2,4-difluorophenyl)-2,2-dichloro-3-(3,4,5-trichlorophenyl)cyclopropane-1-carboxamide] | exhibited activity | exhibited activity
7 | COc1ccc(C(=O)Nc2cc(NC(=O)[C@H]3[C@H](c4cc(Cl)cc(Cl)c4)C3(Cl)Cl)ccc2Cl)cc1 (racemic) [F85, trans-rac-N-(2-Chloro-5-(2,2-dichloro-3-(3,5-dichlorophenyl)cyclopropane-1-carboxamido)phenyl)-4-methoxybenzamide] | exhibited activity | exhibited activity
8 | O=C(Nc1cc(NC(=O)[C@H]2[C@H](c3ccc(F)c(C(F)(F)F)c3)C2(Cl)Cl)ccc1Cl)c1ccc(NC(=O)C(F)(F)F)cc1F (racemic) [F112, trans-rac-N-(2-Chloro-5-(2,2-dichloro-3-(4-fluoro-3-(trifluoromethyl)phenyl)cyclopropane-1-carboxamido)phenyl)-2-fluoro-4-(2,2,2-trifluoroacetamido)benzamide] | exhibited activity | exhibited activity
9 | CCC(F)(F)C(=O)Nc1cc(NC(=O)[C@H]2[C@H](c3cc(Cl)cc(Cl)c3)C2(Cl)Cl)ccc1Cl (racemic) [F58, trans-rac-2,2-Dichloro-N-(4-chloro-3-(2,2-difluorobutanamido)phenyl)-3-(3,5-dichlorophenyl)cyclopropane-1-carboxamide] | exhibited activity | exhibited activity
10 | CC(C#N)C(=O)Nc1cccc(NC(=O)[C@H]2[C@H](c3cc(Cl)cc(Cl)c3)C2(Cl)Cl)c1F (stereo partly drawn) [F22, (1R,3R)-2,2-Dichloro-N-(3-(2-cyanopropanamido)-2-fluorophenyl)-3-(3,5-dichlorophenyl)cyclopropane-1-carboxamide] | exhibited activity | exhibited activity
11 | N#Cc1ccc(C(=O)Nc2cc(NC(=O)[C@H]3[C@H](c4cc(Cl)cc(Cl)c4)C3(Cl)Cl)ccc2Cl)cc1F (racemic) [F72, trans-rac-N-(2-Chloro-5-(2,2-dichloro-3-(3,5-dichlorophenyl)cyclopropane-1-carboxamido)phenyl)-4-cyano-3-fluorobenzamide] | exhibited activity | exhibited activity
12 | Cc1ccc(C(=O)Nc2cc(NC(=O)[C@H]3[C@H](c4cc(Cl)cc(Cl)c4)C3(Cl)Cl)ccc2Cl)cc1 (racemic) [F75, trans-rac-N-(2-Chloro-5-(2,2-dichloro-3-(3,5-dichlorophenyl)cyclopropane-1-carboxamido)phenyl)-4-methylbenzamide] | exhibited activity | exhibited activity
13 | O=C(CC1CC1)Nc1cccc(NC(=O)[C@H]2[C@H](c3cc(Cl)cc(Cl)c3)C2(Cl)Cl)c1F [F21, (1R,3R)-2,2-Dichloro-N-(3-(2-cyclopropylacetamido)-2-fluorophenyl)-3-(3,5-dichlorophenyl)cyclopropane-1-carboxamide] |  | exhibited activity
14 | O=C(Nc1cc(NC(=O)[C@H]2[C@H](c3cc(Cl)cc(Cl)c3)C2(Cl)Cl)ccc1Cl)c1ccccn1 (racemic) [F28, trans-rac-N-(2-chloro-5-(2,2-dichloro-3-(3,5-dichlorophenyl)cyclopropane-1-carboxamido)phenyl)picolinamide] |  | exhibited activity
15 | O=C(CSC(F)(F)F)Nc1ccc(C(=O)Nc2cc(NC(=O)[C@H]3[C@H](c4ccc(F)c(C(F)(F)F)c4)C3(Cl)Cl)ccc2Cl)c(F)c1 (racemic) [F121, trans-rac-N-(2-Chloro-5-(2,2-dichloro-3-(4-fluoro-3-(trifluoromethyl)phenyl)cyclopropane-1-carboxamido)phenyl)-2-fluoro-4-(2-((trifluoromethyl)thio)acetamido)benzamide] | exhibited activity | 
16 | CC(Oc1ccccc1)C(=O)Nc1cc(NC(=O)C2C(c3cc(Cl)cc(Cl)c3)C2(Cl)Cl)ccc1Cl (racemic) [F41, trans-rac-2,2-Dichloro-N-(4-chloro-3-(2-phenoxypropanamido)phenyl)-3-(3,5-dichlorophenyl)cyclopropane-1-carboxamide] | exhibited activity | 
17 | O=C(Nc1cc(NC(=O)[C@H]2[C@H](c3cc(Cl)cc(Cl)c3)C2(Cl)Cl)ccc1Cl)c1ccc(F)cn1 (racemic) [F30, trans-rac-N-(2-Chloro-5-(2,2-dichloro-3-(3,5-dichlorophenyl)cyclopropane-1-carboxamido)phenyl)-5-fluoropicolinamide] | exhibited activity | 
18 | C#Cc1ccc(C(=O)Nc2cc(NC(=O)[C@H]3[C@H](c4cc(Cl)cc(Cl)c4)C3(Cl)Cl)ccc2Cl)cc1 (racemic) [F91, trans-rac-N-(2-Chloro-5-(2,2-dichloro-3-(3,5-dichlorophenyl)cyclopropane-1-carboxamido)phenyl)-4-ethynylbenzamide] | exhibited activity | 
19 | O=C(Nc1ccc(Cl)c(NC(=O)C(F)(F)C(F)F)c1)[C@H]1[C@H](c2cc(Cl)cc(Cl)c2)C1(Cl)Cl (racemic) [F55, trans-rac-2,2-Dichloro-N-(4-chloro-3-(2,2,3,3-tetrafluoropropanamido)phenyl)-3-(3,5-dichlorophenyl)cyclopropane-1-carboxamide] | exhibited activity | 
20 | Cc1cc([N+](=O)[O-])ccc1C(=O)Nc1cc(NC(=O)[C@H]2[C@H](c3cc(Cl)cc(Cl)c3)C2(Cl)Cl)ccc1Cl (racemic) [F90, trans-rac-N-(2-Chloro-5-(2,2-dichloro-3-(3,5-dichlorophenyl)cyclopropane-1-carboxamido)phenyl)-2-methyl-4-nitrobenzamide] | exhibited activity | 
21 | Cc1cc(C#N)ccc1C(=O)Nc1cc(NC(=O)[C@H]2[C@H](c3cc(Cl)cc(Cl)c3)C2(Cl)Cl)ccc1Cl (racemic) [F27, trans-rac-N-(2-Chloro-5-(2,2-dichloro-3-(3,5-dichlorophenyl)cyclopropane-1-carboxamido)phenyl)-4-cyano-2-methylbenzamide] | exhibited activity | 
